# Patent US11058668B2 (EIDOS THERAPEUTICS, INC., priority 2018, dated 2021)
# Where “and” joins values, the source holds several entries; their conditions need not be identical. Equal values may be shown once.
# What was measured:
# [1] = target: T1, TTR (Canis lupus familiaris, UniProt A0A8I3NFK0); test: Single oral dose PK-PD in dogs, TTR occupancy by FPE; assay type: in vivo, beagle dog; details: 5 or 20 mg/kg AG10 HCl single oral dose
# T1 construct: from tissue; host or cells: serum of orally dosed beagle dogs
# Protocol: FPE assay for binding TTR in buffer and human or dog serum. […] The FPE probe is a thioester TTR ligand that is not fluorescent by itself, however upon binding to the T4 binding site of TTR it covalently modifies lysine 15 (K15), creating a fluorescent conjugate. Ligands that bind to the T4 site of TTR will decrease FPE probe binding as observed by lower fluorescence. The FPE assay was also adapted for use with dog serum. FPE with TTR in buffer: An aliquot of 98 μL of TTR in PBS (pH 7.4, final concentration: 2.5 μM) was mixed with 1 μL of test compounds (2.5 μM) and 1 μL of FPE probe (0.18 mM stock solution in DMSO: final concentration: 1.8 μM). The change in fluorescence (λex=328 nm and λem=384 nm) were monitored using a microplate spectrophotometer reader (SpectraMax M5) for 6 hr at rt. […] The change in fluorescence (λex=328 nm and λem=384 nm) were monitored using a microplate spectrophotometer reader (SpectraMax M5) for 6 hr at rt.
# Blood was collected and analyzed pre-dose and at 2, 4, 6, 8, 12 and 24 hr post-dose.
# [2] = system: TTR; test: Phase 2 study in ATTR-CM patients, serum TTR concentration (ARUP Prealbumin assay); assay type: in vivo, human; details: all genotypes, ATTR-CM patients
# Protocol: Screening and randomization will be followed by a 28-day blinded, placebo-controlled treatment period. Approximately 45 subjects are planned to enroll in the Phase 2 study.
# An ARUP Prealbumin assay was also used to analyze TTR blood serum concentration in the MAD cohorts tested. ARUP analyzes samples for prealbumin using the prealbumin reagent kit provided by Roche Diagnostics and run on the Roche Diagnostics c702 module. Lowest reportable limit is 3 mg/dL.
# The phase 2 clinical study was performed essentially as described in Example 3. A total of 49 patents were included instead of 45: 16 receiving 400 mg bid; 16 receiving 800 mg bid; and 17 receiving placebo.
# TTR stabilization was measured ex vivo using the FPE and Western blot assays described at the beginning of the examples section. TTR stabilization was measured in vivo by monitoring TTR serum concentrations in trial participants.
# [3] = pKa values of stabilizers; assay type: physicochemical; details: carboxylic acid group
# [4] = target: T2, TTR (Homo sapiens, UniProt P02766); details: Tafamidis Phase 2 (FDA CDER background package); diflunisal observational study (Hanson 2018); cited from earlier work
# [5] = target: T2, TTR; test: Isothermal titration calorimetry (ITC) with TTR in buffer; details: 25° C.; for Kd: PBS pH 7.4, single-site binding model
# Protocol: (§1) Isothermal Titration Calorimetry (ITC). Binding experiments were performed using MicroCal PEAQ-ITC at 25° C. […] 19 injections of ligand (2.0 μL each) were injected into the ITC cell (at 25° C.) to the point that TTR was fully saturated with ligand. Calorimetric data were plotted and fitted using the standard single-site binding model.
# [6] = target: T3, human serum albumin (HSA) (Homo sapiens, UniProt P02768); test: Gel filtration and dialysis binding to human serum albumin; parameters: albumin from human serum; Sigma Aldrich, catalog no.: A3782; purchased Sigma Aldrich A3782; host or cells: human serum; details: 30 μM compound, 600 μM albumin
# T3 sequence (P02768 25-609): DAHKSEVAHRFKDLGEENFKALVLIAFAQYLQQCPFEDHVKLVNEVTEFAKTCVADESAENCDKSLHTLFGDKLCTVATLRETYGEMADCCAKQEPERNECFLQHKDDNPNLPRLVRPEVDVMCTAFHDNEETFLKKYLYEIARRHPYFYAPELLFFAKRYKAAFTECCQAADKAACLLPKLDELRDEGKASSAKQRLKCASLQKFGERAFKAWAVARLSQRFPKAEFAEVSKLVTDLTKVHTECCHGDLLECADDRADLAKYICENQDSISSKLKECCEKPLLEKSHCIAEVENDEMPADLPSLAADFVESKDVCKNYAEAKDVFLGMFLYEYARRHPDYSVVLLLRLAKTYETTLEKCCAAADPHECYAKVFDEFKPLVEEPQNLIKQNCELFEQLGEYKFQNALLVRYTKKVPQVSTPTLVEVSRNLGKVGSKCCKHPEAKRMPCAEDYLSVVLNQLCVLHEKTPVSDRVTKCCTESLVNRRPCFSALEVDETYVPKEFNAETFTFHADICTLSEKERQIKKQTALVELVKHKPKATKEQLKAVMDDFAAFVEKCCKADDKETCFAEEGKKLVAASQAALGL
# Protocol: The concentration of HSA (i.e. concentration at time zero) was also determined using NanoDrop™ (based on calibration curves of known HAS concentrations). […] The concentration of test compounds in these fractions (i.e. conc. at time zero) was evaluated using HPLC (based on calibration curves of known concentration of test compounds). 500 μL of each HSA/test compound samples was then added to a Slide-A-Lyzer Dialysis Cassette G2 (3.5K MWCO, Thermo Scientific, catalog no. P187722). The dialysis Cassettes were placed in 100 ml of assay buffer and stirred at room temperature. After 24 hr, the samples were removed from dialysis cassette and the volume was measured. The concentration of HAS and test compounds were determined using NanoDrop™ and HPLC as described above.
# [7] = target: T3, human serum albumin (HSA); test: ITC against human serum albumin; details: ITC titration against human serum albumin
# Protocol: as §1
# [8] = target: purified human TTRwt (Homo sapiens, UniProt P02766); test: Modified FPE assay with purified TTR plus other serum proteins (selectivity); assay type: binding; details: purified TTR 5 μM
# Protocol: The percentage of FPE probe binding to TTR in the presence of serum proteins measured after 3 hr of incubation was used to calculate % TTR occupancy.
# [9] = target: T4, TTR in human serum (Homo sapiens, UniProt P02766); test: FPE assay in human serum; assay type: binding; details: stabilizers 10 μM, human serum TTR 5 μM; FPE
# T4 construct: pooled human serum (prepared from human male AB plasma, Sigma; catalog no; H4522; TTR concentration 5 μM); tissue Sigma H4522; host or cells: pooled human serum from human male AB plasma
# Description: FPE assay for binding TTR in buffer and human or dog serum. […] The FPE probe is a thioester TTR ligand that is not fluorescent by itself, however upon binding to the T4 binding site of TTR it covalently modifies lysine 15 (K15), creating a fluorescent conjugate. Ligands that bind to the T4 site of TTR will decrease FPE probe binding as observed by lower fluorescence. […] The change in fluorescence (λex=328 nm and λem=384 nm) were monitored using a microplate spectrophotometer reader (SpectraMax M5) for 6 hr at rt. […] The change in fluorescence (λex=328 nm and λem=384 nm) were monitored using a microplate spectrophotometer reader (SpectraMax M5) for 6 hr at rt.
smiles,measurement,setting,value
Cc1n[nH]c(C)c1CCCOc1cc(C(=O)O)ccc1F.Cl [AG10 HCl],"TTR occupancy, dose comparison",[1],enhanced TTR occupancy in the 20 mg/kg vs. 5 mg/kg dose groups
same,"Blood Serum TTR Concentration, Average Change (baseline to day 28)",[2]; 400 mg b.i.d.,36%
same,"Blood Serum TTR Concentration, Average Change (baseline to day 28)",[2]; 800 mg b.i.d.,50%
"O=C(O)c1cc(-c2ccc(F)cc2F)ccc1O [Diflunisal, reference compound]",pKa,[3],2.94
same,change in serum TTR levels,[4],increased serum TTR levels
same,TΔS,[5],0.34 kcal/mol
same,ΔH,[5],-8.38 kcal/mol
"O=C(O)c1ccc2nc(-c3cc(Cl)cc(Cl)c3)oc2c1 [Tafamidis, 2-(3,5-dichlorophenyl)-1,3-benzoxazole-6-carboxylic acid, reference compound]",pKa,[3],3.73
same,concentration bound to HSA following dialysis vs buffer for 24 hr,[6],18.8 ± 2.1 µM
same,concentration bound to albumin at time 0 (immediately after gel filtration),[6],24.1 ± 1.1 µM
same,Kd,[7],2300 nM
same,change in serum TTR levels,[4],increased serum TTR levels
same,TTR occupancy,[8]; in the absence of albumin,68.2±0.1%
same,TTR occupancy,[8]; in the presence of albumin (600 μM),41.5±0.9%
same,TΔS,[5],6.39 kcal/mol
same,ΔH,[5],-5.0 kcal/mol
same,ΔH,[5]; listed as tafamidis,-5.00 kcal/mol and -5.0 kcal/mol
"Cc1n[nH]c(C)c1CCCOc1cc(C(=O)O)ccc1I [compound 1, 3-(3-(3,5-dimethyl-1H-pyrazol-4-yl)propoxy)-4-iodobenzoic acid]",% TTR Occupancy in Serum (2:1 ratio),[9],75.9 ± 3.1%
same,TΔS,[5],-0.21 kcal/mol
same,ΔG,[5],-9.61 kcal/mol
same,ΔH,[5],-9.82 kcal/mol
same,Kd,[5],90 ± 14 nM
"COC(=O)c1ccc(F)c(OCCCc2c(C)n[nH]c2C)c1 [compound 2, Methyl 3-(3-(3,5-dimethyl-1H-pyrazol-4-yl)propoxy)-4-fluorobenzoate]",TΔS,[5],2.5 kcal/mol
same,ΔG,[5],-8.99 kcal/mol
same,ΔH,[5],-6.49 kcal/mol
same,Kd,[5],258 ± 17 nM
"Cc1nn(C)c(C)c1CCCOc1cc(C(=O)O)ccc1F [compound 3, 4-fluoro-3-(3-(1,3,5-trimethyl-1H-pyrazol-4-yl)propoxy)benzoic acid]",TΔS,[5],4.27 kcal/mol
same,ΔG,[5],-9.0 kcal/mol
same,ΔH,[5],-4.73 kcal/mol
same,Kd,[5],251 ± 12 nM
"CCc1n[nH]c(CC)c1CCCOc1cc(C(=O)O)ccc1F [compound 4, 3-(3-(3,5-diethyl-1H-pyrazol-4-yl)propoxy)-4-fluorobenzoic acid]",TΔS,[5],6.0 kcal/mol
same,ΔG,[5],-8.1 kcal/mol
same,ΔH,[5],-2.1 kcal/mol
same,Kd,[5],1250 ± 79 nM
